Measured values taken from patent publication US12502383B2, “Pharmaceutical composition of cyclooxygenase-2 inhibitors” (THEMIS MEDICARE LIMITED, priority 2019, dated 2025).
Where two headings read alike, the source gives them in different places.

Experiments:
mouse = conditions: cited from earlier work
Dog = conditions: intravenous: Dog; cited from earlier work
rabbit = conditions: intravenous: rabbit; cited from earlier work
[1] = Solubilization of Etoricoxib in solubilizers; assay type: physicochemical
Method: The ratio of active to solubilizers between 1:35 to 1:135.71 gives good solubilization of coxib. Satisfactory compositions can be produced wherein ration of active to solubilizer is between 1:35 to 1:58.33. Etoricoxib 1.4 mg ie 0.14% w/v can be solubilized in Twin 80, 8% w/v and Transcutol 3% w/v. It can also be solubilized in Ethanol and Tween 8% w/v each and Transcutol 3% w/v. One can consider it as 3 solubilizers or 2 solubilizers and one solvent.

[2] = cited from earlier work
[3] = after oral and intravenous administration; cited from earlier work
[4] = cited from earlier work; remark: listed apart in the source
[5] = in vivo; cited from earlier work

In the case of CCOCCOCCO [Transcutol, Diethylene Glycol Monoethyl Ether], the LD50 (mouse; intravenous: mouse) is listed as 4300 µL/kg, the LD50 (mouse; subcutaneous: mouse) is listed as 5500 µL/kg and the LD50 (Dog) is listed as 3 mL/kg. For the same molecule, the LD50 (rabbit) was 2500 µL/kg.

In the case of Cc1ccc(-c2ncc(Cl)cc2-c2ccc(S(C)(=O)=O)cc2)cn1 [Etoricoxib], the Etoricoxib solubilized ([1]; in Ethanol and Tween 8% w/v each and Transcutol 3% w/v) is given as “solubilized”, the Etoricoxib solubilized ([1]; in Twin 80, 8% w/v and Transcutol 3% w/v) is given as 1.4 mg and the “Solubility in 2-propanol” value [2] is given as “sparingly soluble”. The “Solubility in isopropyl acetate, ethanol and toluene” value [2] was “soluble”, the “Solubility in methanol, tetrahydrofuran, dimethyl sulfoxide, methyl ethyl ketone, dimethyl formamide, and chloroform” value [2] was “freely soluble” and the Solubility in water [2] was “practically insoluble”. For the same molecule, the Bioavailability [3] was 100% and the protein binding [4] was “about 92%”.

In the case of Cc1ccc(-c2cc(C(F)(F)F)nn2-c2ccc(S(N)(=O)=O)cc2)cc1 [Celecoxib, 4-[5-(4-methylphenyl)-3-(trifluoromethyl)pyrazol-1-yl]benzenesulfonamide], the “Solubility in anhydrous ethanol” value [2] is listed as “freely soluble to soluble”, the “Solubility in methylene chloride” value [2] is listed as “soluble” and the Solubility in water [2] is listed as “practically insoluble”. For the same molecule, the “solubility in DMF” value [2] was “approximately 25 mg/ml”, the “solubility in DMSO” value [2] was “approximately 16.6 mg/ml” and the solubility in ethanol [2] was “approximately 25 mg/ml”. The drug eliminated unchanged [5] was < 3%.
